Patent US9149038B2, “4-amino-6-(heterocyclic)picolinates and 6-amino-2-(heterocyclic)pyrimidine-4-carboxylates and their use as herbicides” (Dow AgroSciences LLC, priority 2013, dated 2015)
Read-outs that look alike come from different tables or passages of the source.

Tests used:
[1] = test system: Key Broadleaf Weed and Crop Species; test: Post-Emergent Test II: postemergent herbicidal activity, visual rating after 14 d (Table 7); type: in vivo; conditions: post-emergence, 336 h; for pest or weed control at 35 g/ha: 35 g ai/ha; for pest or weed control at 70 g/ha: 70 g ai/ha; for pest or weed control at 140 g/ha: 140 g ai/ha
In short: (§1)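 Greenhouse plants at first or second true leaf stage sprayed with compound in acetone/DMSO-based spray solution with crop oil concentrate and Triton X-155 at 187 L/ha, tested at highest rate and ½× to 1/16× dilutions; solvent blank controls. Injury rated visually 0–100% versus untreated plants after 14 d.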

[2] = test system: Key Grass and Sedge Weeds as well as Grass Crops; test: Post-Emergent Test II: postemergent herbicidal activity, visual rating after 14 d (Table 8); type: in vivo; conditions: post-emergence, 336 h; for pest or weed control at 35 g/ha: 35 g ai/ha; for pest or weed control at 70 g/ha: 70 g ai/ha; for pest or weed control at 140 g/ha: 140 g ai/ha
In short: as §1

[3] = ABUTH: velvetleaf (Abutilon theophrasti), read-out: Visual Growth Reduction (%) 14 Days After Application ABUTH
[4] = AMARE: redroot pigweed (Amaranthus retroflexus), read-out: Visual Growth Reduction (%) 14 Days After Application AMARE
[5] = BRSNN: oilseed rape, canola (Brassica napus), read-out: Visual Growth Reduction (%) 14 Days After Application BRSNN
[6] = CHEAL: lambsquarters (Chenopodium album), read-out: Visual Growth Reduction (%) 14 Days After Application CHEAL
[7] = EPHHL: wild poinsettia (Euphorbia heterophylla), read-out: Visual Growth Reduction (%) 14 Days After Application EPHHL
[8] = HELAN: sunflower (Helianthus annuus), read-out: Visual Growth Reduction (%) 14 Days After Application HELAN
[9] = barnyardgrass (Echinochloa crus-galli), read-out: Visual Growth Reduction (%) 14 Days After Application, ECHCG
[10] = giant foxtail (Setaria faberi), read-out: Visual Growth Reduction (%) 14 Days After Application, SETFA
[11] = maize, corn (Zea mays), read-out: Visual Growth Reduction (%) 14 Days After Application, ZEAMX
[12] = rice (Oryza sativa), read-out: Visual Growth Reduction (%) 14 Days After Application, ORYSA
[13] = wheat, spring (Triticum aestivum), read-out: Visual Growth Reduction (%) 14 Days After Application, TRZAS
[14] = yellow nutsedge (Cyperus esculentus), read-out: Visual Growth Reduction (%) 14 Days After Application, CYPES

Compound `COC(=O)c1nc(-c2ccc3c(c2)SCO3)c(F)c(N)c1Cl` [Compound 105] has a pest or weed control at 35 g/ha [1, 3] of 0 to 29%, a pest or weed control at 70 g/ha [1, 3] of 0 to 29% and a pest or weed control at 140 g/ha [1, 3] of 0 to 29%. For the same compound, the pest or weed control at 35 g/ha [1, 4] was 0 to 29%, the pest or weed control at 70 g/ha [1, 4] was 0 to 29% and the pest or weed control at 140 g/ha [1, 4] was 45 to 59%. The pest or weed control at 35 g/ha [1, 5] was 0 to 29%, the pest or weed control at 70 g/ha [1, 5] was 30 to 44% and the pest or weed control at 140 g/ha [1, 5] was 60 to 74%. For the same compound, the pest or weed control at 35 g/ha [1, 6] was 30 to 44%, the pest or weed control at 70 g/ha [1, 6] was 30 to 44% and the pest or weed control at 140 g/ha [1, 6] was 60 to 74%. For the same compound, the pest or weed control at 35 g/ha [1, 7] was 60 to 74%, the pest or weed control at 70 g/ha [1, 7] was 75 to 84% and the pest or weed control at 140 g/ha [1, 7] was 85 to 94%. The pest or weed control at 35 g/ha [1, 8] was 85 to 94%, the pest or weed control at 70 g/ha [1, 8] was 85 to 94% and the pest or weed control at 140 g/ha [1, 8] was 95 to 100%. For the same compound, the pest or weed control at 35 g/ha [2, 9] was 45 to 59%, the pest or weed control at 70 g/ha [2, 9] was 60 to 74% and the pest or weed control at 140 g/ha [2, 9] was 75 to 84%. For the same compound, the pest or weed control at 35 g/ha [2, 10] was 0 to 29%, the pest or weed control at 70 g/ha [2, 10] was 0 to 29% and the pest or weed control at 140 g/ha [2, 10] was 30 to 44%. It also gave a pest or weed control at 35 g/ha [2, 11] of 0 to 29%, a pest or weed control at 70 g/ha [2, 11] of 0 to 29% and a pest or weed control at 140 g/ha [2, 11] of 0 to 29%. For the same compound, the pest or weed control at 35 g/ha [2, 12] was 0 to 29%, the pest or weed control at 70 g/ha [2, 12] was 0 to 29% and the pest or weed control at 140 g/ha [2, 12] was 0 to 29%. The pest or weed control at 35 g/ha [2, 13] was 0 to 29%, the pest or weed control at 70 g/ha [2, 13] was 0 to 29% and the pest or weed control at 140 g/ha [2, 13] was 0 to 29%. The pest or weed control at 35 g/ha [2, 14] was 0 to 29%, the pest or weed control at 70 g/ha [2, 14] was 0 to 29% and the pest or weed control at 140 g/ha [2, 14] was 0 to 29%.
